From patent US20210052561A1, “TARGETING ASPARTATE BETA-HYDROXYLASE SUPPRESSES TUMOR MALIGNANCY AND METASTASIS” (Rhode Island Hospital, priority 2019, published 2021)
“Also recorded” adds a separate entry of the source. Where two headings read alike, the source gives them in different places.

Assays:
ASPH = target: T1, ASPH (Homo sapiens, UniProt Q12797); assay: ASPH enzymatic (catalytic) activity; format: biochemical
T1 sequence (Q12797 1-758): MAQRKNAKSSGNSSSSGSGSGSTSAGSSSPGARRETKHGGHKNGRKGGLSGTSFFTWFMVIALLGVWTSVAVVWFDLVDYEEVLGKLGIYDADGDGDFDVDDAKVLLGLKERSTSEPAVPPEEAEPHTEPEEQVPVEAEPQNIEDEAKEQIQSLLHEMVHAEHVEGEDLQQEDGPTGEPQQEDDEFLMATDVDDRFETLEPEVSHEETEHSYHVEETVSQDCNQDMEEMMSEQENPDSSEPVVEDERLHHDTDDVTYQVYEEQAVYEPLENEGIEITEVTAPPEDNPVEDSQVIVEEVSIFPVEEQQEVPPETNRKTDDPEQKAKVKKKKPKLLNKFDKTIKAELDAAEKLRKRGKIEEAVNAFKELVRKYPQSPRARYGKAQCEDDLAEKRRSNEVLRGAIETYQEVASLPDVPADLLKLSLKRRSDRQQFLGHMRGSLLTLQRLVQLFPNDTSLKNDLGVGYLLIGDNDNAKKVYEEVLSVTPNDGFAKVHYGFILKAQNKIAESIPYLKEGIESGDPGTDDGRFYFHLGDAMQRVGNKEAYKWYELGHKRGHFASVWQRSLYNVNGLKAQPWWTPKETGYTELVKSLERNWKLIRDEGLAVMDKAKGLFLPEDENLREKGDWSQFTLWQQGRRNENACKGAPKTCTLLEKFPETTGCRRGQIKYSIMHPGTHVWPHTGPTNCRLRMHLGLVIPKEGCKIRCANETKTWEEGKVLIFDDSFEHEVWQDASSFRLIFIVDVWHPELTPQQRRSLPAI
Excerpt: FIGS. 5A-5B show a scheme for measuring ASPH catalytic activity.

MMP14 = assay: immunohistochemistry of primary intrahepatic tumor, MMP14; format: in vivo; settings: rat, 10 mg/kg oral daily
Description: (§1) The immunohistochemistry assay was performed as known in the art. Tissue slides were de-paraffined, re-hydrated, and then subjected to antigen-retrieval using the antigen unmasking solution (Vector Inc., H3300). The endogenous peroxidase activity was quenched with 3% H2O2 prepared in methanol. Tissues slides were further blocked with a 5% milk and BSA solution prepared in 1×PBST for 1 hour. The slides were incubated with ASPH, MMP2, and MMP14 antibodies prepared in with 3% BSA in PBS) overnight at 4° C. overnight. The slides were washed with 0.05% TBST three times and then incubated with 1:200 dilution of biotinylated secondary antibody (Vector Laboratories) and the ABC solution (Vector Laboratories) at 20° C. The slides were incubated with DAB substrate to detect positive staining. […] Images were taken using a Nikon microscope and analyzed with Image Pro Plus.
(§2) To evaluate whether compound 14c suppresses CCA metastasis in vivo, we performed experiments in a rat intrahepatic syngeneic CCA model by ligating the bile duct and inoculating rat BDE-neu-CL24 cells into the liver. We first determined that compound 14c inhibited BDE-neu-CL24 cells in vitro (FIG. 4A). […] The body weights were measured as a gross indicator of drug toxicity and were not affected compared to vehicle control (FIG. 7). The metastatic spread to the lung surface was determined (FIG. 4D).

RBE CCA cells [1] = assay: 24-hour transwell cell migration assay, RBE; format: cell-based, human
Description: (§3) We used 5×10^4 HuCCT1 and 1×10^5 RBE cells in the migration assay.
(§4) Human cholangiocarcinoma cell lines, HuCCT1, RBE, and SSP25 were purchased from the RIKEN cell line bank. They were cultured in RPMI-1640 medium supplemented with 10% (v/v) fetal bovine serum, 2 mM of L-glutamine, and penicillin/streptomycin. A BDE-Neu cell line and BDE-Neu CL24 were cultured in Dulbecco's modified Eagle's medium supplemented with 10% (v/v) fetal bovine serum, 2 mM of L-glutamine, and penicillin/streptomycin. Plasmids pLKO.1-shRNA-luciferase (shLuc) and pLKO.1-shRNA-ASPH (shASPH) were purchased from Sigma-Aldrich (St. Louis, Mo.).
(§5) The cell migration assay was performed using transwell chambers (pore size: 8 μm, Corning 3422) coated with Matrigel® (Corning 354480). The cell invasion assay was performed by using transwell chambers coated with Matrigel® (Corning 354480) as previously described. In brief, 10^5 cells in 200 μl of serum-free medium were plated in the top chamber and 600 μl of culture medium containing 10% fetal bovine serum was preparedapplied in the lower chamber to stimulate cell for migration. Cells were incubated for 24 hours, fixed with methanol, stained with 10% Giemsa solution, and counted using ImageJ software (National Institute of Health, USA). The results of invasion assay were analyzed as described in the migration assay.

RBE CCA cells [2] = assay: cell invasion assay, matrix-coated Boyden chamber transwell, RBE; format: cell-based; settings: Homo sapiens, 10 μM compound 14c, versus DMSO, read-out: inhibition of cell invasion capacity
Description: as §4, §5

BDE-neu-CL24 cells = assay: cell migration assay, rat BDE-neu CL24 CCA cells; format: cell-based; settings: 10 μM, versus DMSO
Description: as §4, §5

MMP2 = assay: immunohistochemistry of primary intrahepatic tumor, MMP2; format: in vivo; settings: rat, 10 mg/kg oral daily
Description: as §1, §2

HuCCT1 CCA cells [3] = assay: 24-hour transwell cell migration assay, HuCCT1; format: cell-based, human; settings: 10 μM compound 14c, versus DMSO
Description: as §3, §4, §5

[4] = test system: intrahepatic CCA tumors from BDE-Neu-CL24 cells; assay: rat intrahepatic syngeneic CCA metastasis model; format: in vivo; settings: for CCA metastatic spread to the lung (metastatic nodules): rat, 10 mg/kg oral capsule daily for 18 days, versus control capsule, p=0.041, 10 mg/kg
Description: Rats received 10 mg/kg (body weight) of the ASPH inhibitor daily for 18 days and sacrificed at day 21 post-surgery
The statistical analysis was performed using the Mann-Whitney U test. *, p<0.05 versus control.
The compound 55 (25 mg/kg) was given by i.p injection, and 10 mg/kg of compound 14c via i.p. injection 3 times per week. N=8-10 in each group.
(§6) The intrahepatic CCA metastatic models weremetastasis model was established with BDE-Neu-CL24 cells. Rats were anesthetized with isoflurane, the abdomen was opened, and the liver inoculated with 3×10^6 BDE-Neu-CL24 cells. The bile duct was then ligated following administration of 0.03 mg/kg of buprenorphine prior to surgery, and four hours after surgery, and the following morning for analgesia as needed. The rats were monitored daily and evaluated for weight change, body condition, and signs of ascites. The oral formulated compound 14c were prepared in capsules at a dose of 10 mg/kg and administered with an oral syringe. The rats were euthanized 18 days post-surgery with Isoflurane and cervical dislocation. Tumors were dissected away from the adjacent liver and weighed. All lung tissues were immersed in Bouin's fixative solution and the metastatic nodules on the surface of the lungs were counted.
Statistical analyses of two groups were done by Student's t-test unless otherwise stated. Equality of variance was examined using F-test. Mann-Whitney U test was used to assess the significance between the two groups with respect to the numbers of metastatic nodules in the rat lung by using the software “R”.
To evaluate whether compound 14c suppresses CCA metastasis in vivo, we performed experiments in a rat intrahepatic syngeneic CCA model by ligating the bile duct and inoculating rat BDE-neu-CL24 cells into the liver. We first determined that compound 14c inhibited BDE-neu-CL24 cells in vitro (FIG. 4A). The intrahepatic rat model was established and the rats challenged with a control capsule or a capsule containing compound 14c (10 mg/kg, FIG. 4B) orally and daily for 18 days, and animals were sacrificed on day 21 (FIG. 4C). The body weights were measured as a gross indicator of drug toxicity and were not affected compared to vehicle control (FIG. 7). The metastatic spread to the lung surface was determined (FIG. 4D).

[5] = body weights of experimental rats as gross indicator of drug toxicity; format: in vivo; settings: rat, compound 14c 10 mg/kg, measured at the indicated experimental time points, n=8-10
Description: There was no difference between the control and experimental groups.
as §6, with “The rats were euthanized 18 days post-surgery with Isoflurane and cervical dislocation. Tumors were dissected away from the adjacent liver and weighed.” left out
as §2

water solubility = format: physicochemical
HuCCT1 CCA cells [6] = assay: cell invasion assay, matrix-coated Boyden chamber transwell, HuCCT1; format: cell-based; settings: Homo sapiens, HuCCT-1, 10 μM compound 14c, versus DMSO, read-out: inhibition of cell invasion capacity
Description: as §4, §5

[7] = listed as third generation ASPH inhibitor

Compound	inhibitory effects on ASPH (enzymatic) activity compared to previous generations of ASPH SMIs (ASPH)	inhibitory effects on ASPH (enzymatic) activity compared to previous generations of ASPH SMIs (ASPH; [7])	MMP14 protein expression in primary intrahepatic tumor (MMP14)	reduction of cell migration (RBE CCA cells [1]; 10 μM compound 14c, 24-hour transwell, versus DMSO) [%]	reduction of RBE CCA cell migration (RBE CCA cells [1]; comparison of ASPH inhibitor generations, concentration not stated)	inhibition at 10 µM (RBE CCA cells [2]) [%]	inhibition of BDE-neu-CL24 cells in vitro (cell migration, FIG. 4A) (BDE-neu-CL24 cells)	MMP2 protein expression in primary intrahepatic tumor (MMP2)	reduction of cell migration (HuCCT1 CCA cells [3]) [%]	effects on CCA progression as compared to compound 55 (FIG. 6A, weight of CCA tumors) ([4]; rat CCA model, compound 14c 10 mg/kg i.p. 3 times per week versus compound 55 25 mg/kg i.p.)	CCA metastatic spread to the lung (metastatic nodules) [4]	CCA metastatic spread to the lung (metastatic nodules) [4, 7]	body weights compared to vehicle control [5]	water solubility compared to previous generations of ASPH SMIs (water solubility)	water solubility compared to previous generations of ASPH SMIs (water solubility; [7])	inhibition at 10 µM (HuCCT1 CCA cells [6]) [%]	anti-tumor effects on metastatic spread to the lung ([4]; rat model, 25 mg/kg, daily)	anti-tumor effects on primary tumor growth ([4]; rat model, 25 mg/kg, daily)
COC(=O)c1ccc(C2OC(N)=C(OS(=O)(=O)Cc3ccccc3)C2=O)cc1 (stereo not drawn) [compound 14c]	improved	increased potency	significantly down-regulated	70	approximately 70%	83	inhibited	significantly down-regulated	50	improved effects	substantially decreased	suppressed	not affected; also recorded: no difference	improved water solubility	more water soluble	60	–	–
NC1=C(OS(=O)(=O)Cc2ccccc2)C(=O)C(c2ccc(C(F)(F)F)cc2)O1 (stereo not drawn) [compound 55, 2-(4-trifluoromethylphenyl)-4-[[phenylmethylsulfonyl]oxy]-5-amino-3(2H)-furanone]	–	–	–	–	–	–	–	–	–	–	–	–	–	–	–	–	did not achieve satisfactory anti-tumor effects	did not achieve satisfactory anti-tumor effects
